Test results as given in article PMC11618438 (ACS Omega, 2024).

Tests used:
MT1 [1] = molecular target: T1, MT1 (Homo sapiens, UniProt P48039); experiment: 2-[125I]-iodomelatonin competition binding assay, membranes of HEK293 cells; conditions: for Ki: 2-[125I]MLT binding assay, hMT1 stably expressed in HEK293 cells; for drop in binding affinity: MT1, relative to 19c
MT1 [2] = molecular target: T1, MT1; experiment: cAMP accumulation assay, forskolin-stimulated HEK293 cells; assay type: cell-based; conditions: for EC50: hMT1 HEK293 cells, 1 μM forskolin
MT1 [3] = molecular target: T1, MT1; experiment: β-arrestin2 recruitment BRET assay in HEK293 cells; assay type: cell-based; conditions: for EC50: hMT1 HEK293 cells, BRET; for effect on ß-arrestin recruitment: Figure S2C
MT1 [4] = molecular target: T1, MT1; experiment: ERK activation; assay type: cell-based; conditions: for EC50: hMT1 cells, 5 min stimulation
MDA-MB-231 = experiment: Cell survival by MTT assay, MDA-MB-231; assay type: cell-based; conditions: IC50 MLT+TAM versus IC50 compound
human ERα = molecular target: T2, human ERα (Homo sapiens, UniProt P03372); experiment: cell-based
T2 sequence (P03372 1-595): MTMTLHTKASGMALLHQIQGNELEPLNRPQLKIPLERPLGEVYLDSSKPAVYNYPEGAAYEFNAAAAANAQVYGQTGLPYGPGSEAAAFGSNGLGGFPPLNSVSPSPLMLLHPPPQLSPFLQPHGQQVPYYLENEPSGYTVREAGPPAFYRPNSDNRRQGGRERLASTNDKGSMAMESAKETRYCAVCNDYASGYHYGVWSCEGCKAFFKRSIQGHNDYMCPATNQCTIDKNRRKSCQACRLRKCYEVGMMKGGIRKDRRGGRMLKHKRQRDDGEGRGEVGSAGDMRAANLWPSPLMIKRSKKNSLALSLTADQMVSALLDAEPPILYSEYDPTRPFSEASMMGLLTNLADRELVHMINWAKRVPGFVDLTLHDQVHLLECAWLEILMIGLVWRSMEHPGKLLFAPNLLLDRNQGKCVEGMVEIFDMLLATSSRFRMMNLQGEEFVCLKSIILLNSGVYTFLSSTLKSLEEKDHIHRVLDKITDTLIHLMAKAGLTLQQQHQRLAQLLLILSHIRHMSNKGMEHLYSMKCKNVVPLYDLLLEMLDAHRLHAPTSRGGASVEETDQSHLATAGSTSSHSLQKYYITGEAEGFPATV

[5] = test system: human MT1 receptors expressed in CHO cells; conditions: [125I]-iodomelatonin; cited from earlier work
HT-1080 = experiment: Cell survival by MTT assay, HT-1080; assay type: cell-based; conditions: IC50 MLT+TAM versus IC50 compound
[6] = pEC50 ± S.E.M., cAMP accumulation
[7] = pEC50 ± S.E.M., ß-arrestin recruitment

T1 sequence (P48039 whole entry): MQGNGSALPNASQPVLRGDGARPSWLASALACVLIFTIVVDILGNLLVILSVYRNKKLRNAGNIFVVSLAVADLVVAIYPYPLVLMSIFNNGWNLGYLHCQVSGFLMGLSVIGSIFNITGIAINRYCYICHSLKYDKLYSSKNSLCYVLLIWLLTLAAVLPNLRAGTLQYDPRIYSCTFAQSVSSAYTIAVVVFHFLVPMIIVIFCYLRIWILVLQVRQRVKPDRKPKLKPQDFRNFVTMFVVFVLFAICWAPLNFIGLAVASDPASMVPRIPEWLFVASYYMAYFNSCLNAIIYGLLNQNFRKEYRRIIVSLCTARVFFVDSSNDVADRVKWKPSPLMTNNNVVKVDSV

SMILES	Ki (MT1 [1]; Ki) [nM]	Ki (MT1 [1]; pKi ± S.E.M.) [nM]	EC50 (MT1 [2]; EC50, cAMP accumulation) [nM]	EC50 (MT1 [2]; [6]) [nM]	EC50 (MT1 [3]; EC50, ß-arrestin recruitment) [nM]	EC50 (MT1 [3]; [7]) [nM]	EC50 (MT1 [4]; EC50, ERK activation) [nM]	EC50 (MT1 [4]; pEC50 ± S.E.M., ERK activation) [nM]	drop in binding affinity (MT1 [1])	effect on ß-arrestin recruitment (MT1 [3])	effect on ERK activation (MT1 [4]; cells expressing MT1)	IC50 (human ERα) [nM]	right shift of cAMP EC50 compared to Ki (MT1 [2]; MT1) [logs]	sensitization versus combined melatonin and tamoxifen treatment (MDA-MB-231) [fold]	affinity, competition binding [5] [nM]	sensitization versus combined melatonin and tamoxifen treatment (HT-1080) [fold]
CC/C(=C(\c1ccccc1)c1ccc(OCCN(C)CCCCCC(=O)NCCCOc2ccc3[nH]cc(CCNC(C)=O)c3c2)cc1)c1ccccc1 [16b, (Z)-N-(3-((3-(2-Acetamidoethyl)-1H-indol-5-yl)oxy)propyl)-6-((2-(4-(1,2-diphenylbut-1-en-1-yl)phenoxy)ethyl)(methyl)amino)hexanamide]	22	20	987	871	999	955	16	13.8	–	–	–	–	–	–	–	–
COc1ccc2[nH]cc(CCNC(C)=O)c2c1 [MLT, melatonin]	–	–	–	–	–	–	–	–	–	–	–	–	–	–	8.6	–
CC/C(=C(\c1ccccc1)c1ccc(OCCN(C)CCOCCOCCOc2ccc3[nH]cc(CCNC(C)=O)c3c2)cc1)c1ccccc1 [compound 21, (Z)-N-(2-(5-(2-(2-(2-((2-(4-(1,2-Diphenylbut-1-en-1-yl)phenoxy)ethyl)(methyl)amino)ethoxy)ethoxy)ethoxy)-1H-indol-3-yl)ethyl)acetamide]	6.5	6.17	74.3	63.1	197	138	36	28.2	–	clear partial effect	–	–	–	–	–	3.6

More lines, main results first:

Ki (MT1 [1]; Ki) [nM]	Ki (MT1 [1]; pKi ± S.E.M.) [nM]	EC50 (MT1 [2]; EC50, cAMP accumulation) [nM]	EC50 (MT1 [2]; [6]) [nM]	EC50 (MT1 [3]; EC50, ß-arrestin recruitment) [nM]	EC50 (MT1 [3]; [7]) [nM]	EC50 (MT1 [4]; EC50, ERK activation) [nM]	EC50 (MT1 [4]; pEC50 ± S.E.M., ERK activation) [nM]	drop in binding affinity (MT1 [1])	effect on ß-arrestin recruitment (MT1 [3])	effect on ERK activation (MT1 [4]; cells expressing MT1)	IC50 (human ERα) [nM]	right shift of cAMP EC50 compared to Ki (MT1 [2]; MT1) [logs]	SMILES	sensitization versus combined melatonin and tamoxifen treatment (MDA-MB-231) [fold]	affinity, competition binding [5] [nM]	sensitization versus combined melatonin and tamoxifen treatment (HT-1080) [fold]
> 10000	–	> 10000	8910	–	977	–	–	> 1,000 fold	no effect	no effect	~100	–	CC/C(=C(\c1ccccc1)c1ccc(OCCN(C)C(=O)CCCCOc2ccc3[nH]cc(CCNC(C)=O)c3c2)cc1)c1ccccc1 [19a, (Z)-5-((3-(2-Acetamidoethyl)-1H-indol-5-yl)oxy)-N-(2-(4-(1,2-diphenylbut-1-en-1-yl)phenoxy)ethyl)-N-methylpentanamide]	3.0	–	–
2.8	2.63	–	209	2230	1070	161	61.7	–	–	–	~100	2	CC/C(=C(\c1ccccc1)c1ccc(OCCN(C)C(=O)CCCCCCOc2ccc3[nH]cc(CCNC(C)=O)c3c2)cc1)c1ccccc1 [19c, (Z)-7-((3-(2-Acetamidoethyl)-1H-indol-5-yl)oxy)-N-(2-(4-(1,2-diphenylbut-1-en-1-yl)phenoxy)ethyl)-N-methylheptanamide]	–	–	–
3150	2950	389	372	4660	3890	178	120	> 1,000 fold	–	–	–	–	CC/C(=C(\c1ccccc1)c1ccc(OCCN(C)C(=O)CCCCCOc2ccc3[nH]cc(CCNC(C)=O)c3c2)cc1)c1ccccc1 [compound 19b, (Z)-6-((3-(2-Acetamidoethyl)-1H-indol-5-yl)oxy)-N-(2-(4-(1,2-diphenylbut-1-en-1-yl)phenoxy)ethyl)-N-methylhexanamide]	–	–	–
